# In US9415051B1, “Use of pemirolast” (priority 2015, dated 2016):
# Like-named read-outs stand apart in the source and are kept apart here.
# Tests used:
# hERG potassium channel = hERG potassium channel (Homo sapiens, UniProt Q12809)
# Experimental: This study was performed by PhysioStim, France, a GLP compliant facility.
# The effects of pemirolast on hERG currents in HEK-293 cells stably expressing the hERG potassium channel were studied using patch-clamp technique.
# [1] = dog, in vivo
# Experimental: The study, including all analyses and calculations, were performed by WIL Research, France, in compliance with Good Laboratory Practices (GLP).
# [2] = Toxicokinetics of pemirolast in the dog, 7-day oral repeated dose; parameters: species or system dog (Beagles); settings: Beagle, in vivo, 75 mg/kg daily oral, 7th day
# Description: There were no major differences in kinetics between males and females.
# [3] = Single and multiple-dose open safety and tolerability study, pharmacokinetics of pemirolast potassium tablets in humans; assay type: in vivo, human; settings: for Cmax: human, plasma; for Cmax / Cmax, mean: multiple dose, healthy male subjects, N = 6
# Experimental: This study comprised 18 healthy male subjects, 18-45 years of age, and was a single and multiple-dose, open study assessing the safety and tolerability of pemirolast potassium tablets (10 mg, Ulgixal™ tablets) with the doses 10, 30 and 50 mg (containing 8.5, 25.5 and 42.5 mg pemirolast free acid, respectively) b.i.d. (6 subjects in each dose group). The subjects received a single dose on the first day, then b.i.d. for three days and a single dose on the fifth day. The study was performed at the Berzelius Clinical Research Center AB in Linköping, Sweden. All laboratory pharmacokinetic analyses were performed by Quintiles AB, Uppsala, Sweden. Pharmacokinetic calculations were performed by Pharm Assist Sweden AB, Uppsala, Sweden. Mean Cmax data after multiple dosing are shown in and Table 1, and mean plasma concentrations over time on Day 5 are shown in FIG. 1.
# asthma patients [4] = assay: Clinical trial: FEV1 before and 3 hours after treatment; assay type: in vivo, human; settings: 3 hours after an oral dose of 400 mg; 3.58±0.86 L before treatment; mean ±SD, n=22
# [5] = system: airway or bronchial hyperresponsiveness; settings: 50 mg doses twice daily in humans (Kemp et al 1992); cited from earlier work
# [6] = Later pharmacokinetic studies in healthy volunteers, multiple doses b.i.d. for three and a half days; assay type: in vivo, human; settings: for Cmax: human, plasma, oral, read-out: Actual Cmax
# Description: Later pharmacokinetic studies in healthy volunteers (7 to 8 in each group) have shown that actual Cmax values for various multiple doses (b.i.d. for three and a half days) are as follows: […]
# [7] = system: airway hyperresponsiveness to mannitol challenge in asthma patients; assay: Clinical trial: mannitol challenge test (PD15 for mannitol) in asthma patients; assay type: in vivo, human; settings: for Mannitol dose tolerated (PD15) at the placebo visit; reduction in AHR/BHR: n=4, FIG. 2
# Experimental: This study comprised male and female asthma patients (18 to 46 years of age) with a positive asthma test (as determined by a mannitol challenge test (vide infra) performed within 15 days prior to enrolment at the first screening visit, Visit 1).
# It was a double-blind, randomized, placebo-controlled, cross-over trial assessing the efficacy of orally administered single doses of placebo and 40 mg and 400 mg of pemirolast (immediate release tablets containing pemirolast sodium hemihydrate, as well as microcrystalline cellulose, mannitol, copovidone fine, croscarmellose sodium, anhydrous colloidal silica and magnesium stearate) in patients challenged with mannitol inhalation as described below.
# The patients were exposed to the different treatments at three separate hospital visits at least 2 (mean 6.8, median 6) days apart. The data reported in FIGS. 2 and 3 below represent the patients that received placebo treatment at the first visit (n=8) or placebo at the second visit (after 40 mg at the first visit (n=4) or after 400 mg at the first visit (n=4)).
# All doses were administered 3 hours before initiation of the mannitol challenge test to ensure peak plasma concentrations of pemirolast when the mannitol challenge was performed (blood samples for analysing plasma concentrations of pemirolast were collected 3 hours after drug administration).
# There were 5 visits during the trial: A screening visit (Visit 1, within 15 days before Visit 2), three visits for treatment with Investigational Medicinal Products (IMP; pemirolast 40 or 400 mg, or placebo) (Visit 2-4, spaced at least 2 days apart), and a final follow-up visit by telephone (Visit 5, at least 2, but less than 4 days after Visit 4 and within 30 days of Visit 2). […]
# asthma patients [8] = assay: Clinical trial: adverse events, vital signs and laboratory tests; assay type: in vivo, human; settings: single oral doses of 40 mg and 400 mg
# [9] = Clinical trial: plasma pemirolast concentration by LC-MS/MS; assay type: in vivo; settings: human, 40 and 400 mg single oral doses, asthma patients
# Experimental: All doses were administered 3 hours before initiation of the mannitol challenge test to ensure peak plasma concentrations of pemirolast when the mannitol challenge was performed (blood samples for analysing plasma concentrations of pemirolast were collected 3 hours after drug administration). All laboratory pharmacokinetic analyses were performed by Clinical Pharmacology, Karolinska University Hospital, Stockholm, Sweden. Briefly, the concentration of pemirolast in human plasma was determined by solid phase extraction and liquid chromatography followed by tandem mass spectrometric detection (LC-MS/MS). The analytical method, utilizing a 200 μL sample aliquot, has a calibration range of 4.00-4000 ng/mL, with a lower limit of quantification (LLOQ) set at 4.00 ng/mL.
# [10] = system: 11β-PGF2α (mast cell biomarker prostaglandin D2 metabolite); assay: Clinical trial: urinary excretion of PGD2 metabolite 11β-PGF2α (EIA); assay type: in vivo, human; settings: patients treated at least 3 days before with 40 mg or 400 mg, 4+4 patients, FIG. 3
# Experimental: A secondary endpoint in the study was to analyse changes in urinary excretion of a metabolite (11β-prostaglandin (PG) F2α) of the lung mast cell mediator/biomarker prostaglandin D2. 11β-PGF2α analysis was performed in unextracted urine samples using a validated enzyme immunoassays (EIA) kit from Cayman Chemical, Ann Arbor, Mich., USA (Item no 516521). […]
# [11] = 10 mg pemirolast potassium (8.5 mg free acid) oral b.i.d.
# [12] = 30 mg pemirolast potassium (25.5 mg free acid) oral b.i.d.
# [13] = 50 mg pemirolast potassium (42.5 mg free acid) oral b.i.d.
# Chain of hERG potassium channel (Q12809 whole entry): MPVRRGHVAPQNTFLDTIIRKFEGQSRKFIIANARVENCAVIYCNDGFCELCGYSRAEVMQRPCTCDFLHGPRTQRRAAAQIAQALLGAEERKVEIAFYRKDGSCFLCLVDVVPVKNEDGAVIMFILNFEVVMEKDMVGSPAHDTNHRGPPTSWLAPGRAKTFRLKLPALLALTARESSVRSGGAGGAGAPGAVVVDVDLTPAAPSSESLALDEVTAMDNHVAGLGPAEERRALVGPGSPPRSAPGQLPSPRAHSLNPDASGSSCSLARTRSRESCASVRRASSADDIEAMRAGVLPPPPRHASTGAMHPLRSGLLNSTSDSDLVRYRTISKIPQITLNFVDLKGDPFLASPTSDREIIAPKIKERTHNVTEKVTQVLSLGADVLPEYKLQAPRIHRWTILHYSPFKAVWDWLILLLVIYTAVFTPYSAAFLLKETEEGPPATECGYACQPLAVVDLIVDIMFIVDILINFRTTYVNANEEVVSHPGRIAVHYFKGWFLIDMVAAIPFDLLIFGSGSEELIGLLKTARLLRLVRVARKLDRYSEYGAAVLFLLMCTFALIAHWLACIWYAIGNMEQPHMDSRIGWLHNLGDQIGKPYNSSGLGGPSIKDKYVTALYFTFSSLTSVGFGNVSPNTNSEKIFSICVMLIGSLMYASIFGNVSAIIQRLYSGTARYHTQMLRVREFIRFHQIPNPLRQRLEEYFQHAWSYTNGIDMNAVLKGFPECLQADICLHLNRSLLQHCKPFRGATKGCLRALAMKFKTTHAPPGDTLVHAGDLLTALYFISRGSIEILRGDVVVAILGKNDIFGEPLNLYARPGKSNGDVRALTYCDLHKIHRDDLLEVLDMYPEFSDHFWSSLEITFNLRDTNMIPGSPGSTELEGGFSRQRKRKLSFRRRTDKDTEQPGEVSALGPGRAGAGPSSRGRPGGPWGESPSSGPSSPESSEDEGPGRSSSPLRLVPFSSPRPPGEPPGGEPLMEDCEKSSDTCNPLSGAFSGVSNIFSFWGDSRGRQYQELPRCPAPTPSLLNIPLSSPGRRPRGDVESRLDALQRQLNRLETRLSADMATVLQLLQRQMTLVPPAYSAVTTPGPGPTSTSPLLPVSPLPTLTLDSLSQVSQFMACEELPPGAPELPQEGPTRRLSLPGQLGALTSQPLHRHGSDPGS
structure (smiles),measurement,setting,value
Cc1cccn2c(=O)c(-c3nnn[nH]3)cnc12 [pemirolast potassium],Decrease of hERG tail current amplitude,hERG potassium channel; 2.7 μg/mL,5.4%
same,Decrease of hERG tail current amplitude,hERG potassium channel; 8 μg/mL,10.2%
same,Decrease of hERG tail current amplitude,hERG potassium channel; 26.6 μg/mL,14.1%
same,Decrease of hERG tail current amplitude,hERG potassium channel; 79.9 μg/mL,19.0%
same,Safe chronic dose,[1],75 mg/kg daily
same,Cmax,[2]; female dogs (n = 3),150000 ng/mL
same,Cmax,[2]; male dogs (n = 3),168000 ng/mL
same,Cmax,[3]; [11],730 ng/mL
same,Cmax,[3]; [12],2040 ng/mL
same,Cmax,[3]; [13],3420 ng/mL
Cc1cccn2c(=O)c(-c3nnn[nH]3)cnc12 [pemirolast],FEV1,asthma patients [4],3.55 ± 0.84 L
same,Effect on airway or bronchial hyperresponsiveness,[5],no effect whatsoever
same,Safety and tolerability,"[6]; 80, 200 and 320 mg b.i.d. for three and a half days",safe and well-tolerated
same,Cmax,[6]; 80 mg b.i.d. for three and a half days,8840 ng/mL
same,Cmax,[6]; 200 mg b.i.d. for three and a half days,32500 ng/mL
same,Cmax,[6]; 320 mg b.i.d. for three and a half days,51000 ng/mL
same,Mannitol PD15,"[7]; 3 hour pre-treatment, single oral dose, asthma patients",increased
same,Mannitol dose tolerated (PD15) at the placebo visit; reduction in AHR/BHR,[7]; single 40 mg oral dose before the placebo treatment,not seen
same,Mannitol dose tolerated (PD15) at the placebo visit; reduction in AHR/BHR,[7]; single 400 mg oral dose at least 3 days before placebo/mannitol,tolerated a much higher dose of mannitol
same,"Cmax, mean",[3]; [11],730 ng/mL
same,"Cmax, mean",[3]; [12],2040 ng/mL
same,"Cmax, mean",[3]; [13],3420 ng/mL
same,Predicted Cmax,"[3]; predicted for 125 mg, linear extrapolation from 8.5 mg multiple dose",10680 ng/mL
same,Predicted Cmax,"[3]; predicted for 125 mg, linear extrapolation from 25.5 mg multiple dose",9980 ng/mL
same,Predicted Cmax,"[3]; predicted for 125 mg, linear extrapolation from 42.5 mg multiple dose",10070 ng/mL
same,Predicted Cmax,"[3]; predicted for 200 mg, linear extrapolation from 8.5 mg multiple dose",17080 ng/mL
same,Predicted Cmax,"[3]; predicted for 200 mg, linear extrapolation from 25.5 mg multiple dose",15980 ng/mL
same,Predicted Cmax,"[3]; predicted for 200 mg, linear extrapolation from 42.5 mg multiple dose",16120 ng/mL
same,Predicted Cmax,"[3]; predicted for 400 mg, linear extrapolation from 8.5 mg multiple dose",34160 ng/mL
same,Predicted Cmax,"[3]; predicted for 400 mg, linear extrapolation from 25.5 mg multiple dose",31950 ng/mL
same,Predicted Cmax,"[3]; predicted for 400 mg, linear extrapolation from 42.5 mg multiple dose",32230 ng/mL
same,"Adverse events, vital signs, physical examination, laboratory tests",asthma patients [8],no serious adverse events
same,half-life,[9],4 to 7 h
same,"Urinary levels of the PGD2 biomarker (11β-PGF2α), 40 mg versus 400 mg",[10],did not differ
